This note sets out measurements from patent US12071402B2, “Immunosuppressant formulations” (Novartis AG, priority 2011, dated 2024).

The nature of the series: Stability of NVS-A in mixtures with various compounds, 50° C./75% RH, 4 weeks, HPLC assay. In kind it is physicochemical. The settings on record: vial. On the procedure: The following Example illustrates the stability of the hemifumarate salt of 1-{4-[1-(4-cyclohexyl-3-trifluoromethyl-benzyloxyimino)-ethyl]-2-ethyl-benzyl}-azetidine-3-carboxylic acid in the presence of various compounds. Mixtures of this API with various compounds were exposed in a sealed vial to conditions of 50° C. temperature and 75% relative humidity for 4 weeks. After 4 weeks, the API degradation and sum of degradation products were assayed.
Assay method: HPLC using agilent […] and a Phenomenex Gemini C18 column. UV detection at 260 nm was used. The mobile phase used was a gradient water-acetonitrile containing 0.2% (v/v) formic acid and 10% (v/v) Triethylamine.

In the case of `CCc1cc(C(C)=NOCc2ccc(C3CCCCC3)c(C(F)(F)F)c2)ccc1CN1CC(C(=O)O)C1` [NVS-A, 1-{4-[1-(4-cyclohexyl-3-trifluoromethyl-benzyloxyimino)-ethyl]-2-ethyl-benzyl}-azetidine-3-carboxylic acid], the “Assay (%)*” value is listed as 100.2% and the “Sum of unknown peaks (%)*” value was found to be 1.86%.
